Test results: ChEMBL document CHEMBL3885861, “Open TG-GATES”

Species on record: Rattus norvegicus
Test: Open TG-GATES - Regimen: Daily Repeat
Assay type: toxicity, organism-based, Sprague-Dawley
Set-up: regimen Daily Repeat, gender Male, age 6 weeks
Conditions: in vivo, po, route gavage; for gamma-GTP / ALP / ALT / AST / BUN / CRE / Ca / Cl / DBIL / GLC / IP / K / LDH / Na / PL / RALB / TBIL / TC / TG / TP: tissue Plasma; for APTT / Bas / Eos / Fbg / Ht / Lym / MCH / MCHC / MCV / Mono / Neu / PT / Plat / RBC / Ret / WBC: tissue Blood; for KIDNEY_L / KIDNEY_R / KIDNEY_TOTAL: tissue Kidney; for LIVER: tissue Liver
[1] = 10 mg/kg, 72 h, dose level Low, time 3 day
[2] = 10 mg/kg, […], dose level Low, time 7 day
[3] = 10 mg/kg, […], dose level Low, time 14 day
[4] = 10 mg/kg, […], dose level Low, time 28 day

Cc1cccc(Nc2cc(Cl)nc(SCC(=O)O)n2)c1C [PIRINIXIC ACID]
gamma-GTP (0 mg/kg, […], dose level Control, time 28 day): 1 IU/L | TERMINAL_BW [1]: 232.6 g | APTT [1]: 15.8 s | Bas [1]: 0% | Eos [1]: 1% | Fbg [1]: 215.2 mg/dL | Ht [1]: 39% | Lym [1]: 76.6% | MCH [1]: 21.6 pg | MCHC [1]: 34% | MCV [1]: 63.6 fL | Mono [1]: 2.6% | Neu [1]: 19.2% | PT [1]: 12.5 s | Plat [1]: 111.3 x10_4/uL | RBC [1]: 612.8 x10_4/ul | Ret [1]: 6.1% | WBC [1]: 76.7 x10_2/uL | KIDNEY_L [1]: 1 g | KIDNEY_R [1]: 1 g | KIDNEY_TOTAL [1]: 1.9 g | LIVER [1]: 14.4 g | ALP [1]: 2039.8 IU/L | ALT [1]: 60.6 IU/L | AST [1]: 81.6 IU/L | BUN [1]: 14.6 mg/dL | CRE [1]: 0.2 mg/dL | Ca [1]: 10.8 mg/dL | Cl [1]: 106 meq/L | DBIL [1]: 0.02 mg/dL | GLC [1]: 210 mg/dL | IP [1]: 7.5 mg/dL | K [1]: 4.1 meq/L | LDH [1]: 90 IU/L | Na [1]: 143.8 meq/L | PL [1]: 111.8 mg/dL | RALB [1]: 2.7 g/dL | TBIL [1]: 0.03 mg/dL | TC [1]: 55 mg/dL | TG [1]: 31.2 mg/dL | TP [1]: 5.4 g/dL | gamma-GTP [1]: 1.2 IU/L | TERMINAL_BW [2]: 276.5 g | TERMINAL_BW [3]: 313.7 g | TERMINAL_BW [4]: 373.2 g | APTT [2]: 17.8 s | Bas [2]: 0% | Eos [2]: 1% | Fbg [2]: 262.8 mg/dL | Ht [2]: 38.4% | Lym [2]: 76.4% | MCH [2]: 21.6 pg | MCHC [2]: 34.9% | MCV [2]: 61.8 fL | Mono [2]: 3.2% | Neu [2]: 19.2% | PT [2]: 12.6 s | Plat [2]: 130.2 x10_4/uL | RBC [2]: 621.6 x10_4/ul | Ret [2]: 5.9% | WBC [2]: 93.9 x10_2/uL | APTT [3]: 17.3 s | Bas [3]: 0.2% | Eos [3]: 1% | Fbg [3]: 262.8 mg/dL | Ht [3]: 38.9% | Lym [3]: 78.8% | MCH [3]: 20.7 pg | MCHC [3]: 35.3% | MCV [3]: 58.6 fL | Mono [3]: 2.8% | Neu [3]: 16% | PT [3]: 12.5 s | Plat [3]: 132.4 x10_4/uL | RBC [3]: 664.6 x10_4/ul | Ret [3]: 4.7% | WBC [3]: 110.5 x10_2/uL | APTT [4]: 16.3 s | Bas [4]: 0% | Eos [4]: 1% | Fbg [4]: 251.2 mg/dL | Ht [4]: 39.5% | Lym [4]: 76.8% | MCH [4]: 19.7 pg | MCHC [4]: 35.9% | MCV [4]: 54.9 fL | Mono [4]: 3.6% | Neu [4]: 18% | PT [4]: 12.2 s | Plat [4]: 118 x10_4/uL | RBC [4]: 720.4 x10_4/ul | Ret [4]: 2.7% | WBC [4]: 97.4 x10_2/uL | KIDNEY_L [2]: 1.2 g | KIDNEY_R [2]: 1.1 g | KIDNEY_TOTAL [2]: 2.3 g | KIDNEY_L [3]: 1.3 g | KIDNEY_R [3]: 1.3 g | KIDNEY_TOTAL [3]: 2.6 g | KIDNEY_L [4]: 1.4 g | KIDNEY_R [4]: 1.4 g | KIDNEY_TOTAL [4]: 2.9 g | LIVER [2]: 20.3 g | LIVER [3]: 22.8 g | LIVER [4]: 26.4 g | ALP [2]: 1837.8 IU/L | ALT [2]: 49.2 IU/L | AST [2]: 65.4 IU/L | BUN [2]: 18.4 mg/dL | CRE [2]: 0.2 mg/dL | Ca [2]: 11.2 mg/dL | Cl [2]: 102.4 meq/L | DBIL [2]: 0.014 mg/dL | GLC [2]: 202.6 mg/dL | IP [2]: 7.2 mg/dL | K [2]: 4.2 meq/L | LDH [2]: 98.8 IU/L | Na [2]: 142.2 meq/L | PL [2]: 148.6 mg/dL | RALB [2]: 3 g/dL | TBIL [2]: 0.026 mg/dL | TC [2]: 77.6 mg/dL | TG [2]: 60.4 mg/dL | TP [2]: 6.2 g/dL | gamma-GTP [2]: 1 IU/L | ALP [3]: 1550.8 IU/L | ALT [3]: 45 IU/L | AST [3]: 64 IU/L | BUN [3]: 17.4 mg/dL | CRE [3]: 0.2 mg/dL | Ca [3]: 10.5 mg/dL | Cl [3]: 103.2 meq/L | DBIL [3]: 0.016 mg/dL | GLC [3]: 206.8 mg/dL | IP [3]: 7.4 mg/dL | K [3]: 3.8 meq/L | LDH [3]: 97.2 IU/L | Na [3]: 142.2 meq/L | PL [3]: 144.2 mg/dL | RALB [3]: 2.9 g/dL | TBIL [3]: 0.032 mg/dL | TC [3]: 67.2 mg/dL | TG [3]: 53.6 mg/dL | TP [3]: 6.2 g/dL | gamma-GTP [3]: 1.2 IU/L | ALP [4]: 1413.8 IU/L | ALT [4]: 50.4 IU/L | AST [4]: 63.6 IU/L | BUN [4]: 17.6 mg/dL | CRE [4]: 0.2 mg/dL | Ca [4]: 11 mg/dL | Cl [4]: 103.8 meq/L | DBIL [4]: 0.014 mg/dL | GLC [4]: 188.6 mg/dL | IP [4]: 7.4 mg/dL | K [4]: 3.7 meq/L | LDH [4]: 115 IU/L | Na [4]: 143 meq/L | PL [4]: 155.2 mg/dL | RALB [4]: 3.1 g/dL | TBIL [4]: 0.048 mg/dL | TC [4]: 79.4 mg/dL | TG [4]: 63.4 mg/dL | TP [4]: 6.8 g/dL
